Experimental data taken from ChEMBL document CHEMBL4665764, “Synthesis and Biological Evaluation of Celastrol Derivatives as Potential Immunosuppressive Agents” (J Nat Prod, 2020).
pIC50: −log10 of the molar value. Calls of active or inactive are those of the source. The calls are words filed in the database; no cut-off is given here.

Key:
[1] = Cytotoxicity against BALB/c mouse T cell assessed as reduction in cell viability after 48 hrs by CCK8 assay; format: tissue-based, T cell line; details: BALB/c mouse T cells
[2] = Antiproliferative activity against Con A-induced BALB/c mouse T cell after 48 hrs by CCK8 assay; format: functional, tissue-based, T cell line
[3] = Selectivity index, ratio of CC50 for cytotoxicity against BALB/c mouse T cell to IC50 for antiproliferative activity against Con A-induced BALB/c mouse T cell; design: species or system T cell line
[4] = tested on: T cell line; experiment: Induction of apoptosis in BALB/c mouse T cell assessed as increase in Bax at >=1 uM by Western blot analysis; format: functional; details: dose microM >=1
[5] = tested on: T cell line; experiment: Induction of apoptosis in BALB/c mouse T cell assessed as increase in Bcl2 at >=1 uM by Western blot analysis; format: functional; details: dose microM >=1
[6] = tested on: T cell line; experiment: Induction of mitochondrial membrane disruption in BALB/c mouse T cell assessed as increase in cytochrome c release from mitochondria to cytosol at >=1 uM by Western blot analysis; format: functional; details: dose microM >=1
[7] = tested on: T cell line; experiment: Induction of apoptosis in BALB/c mouse T cell assessed as assessed as increase in caspase 3 >=1 uM; format: functional, tissue-based; details: dose microM >=1
[8] = tested on: T cell line; experiment: Induction of apoptosis in BALB/c mouse T cell assessed as assessed as increase in caspase 9 >=1 uM; format: functional, tissue-based; details: dose microM >=1
[9] = Anti-inflammatory activity in BALB/c mouse T cell assessed as assessed as IL-4 level at 0.01 uM after 48 hrs by ELISA (reference value: 167.8 +/- 9.4 pg/ml); format: functional, T cell line
[10] = Anti-inflammatory activity in BALB/c mouse T cell assessed as assessed as IL-4 level at 0.1 uM after 48 hrs by ELISA (reference value: 167.8 +/- 9.4 pg/ml); format: functional, T cell line
[11] = Anti-inflammatory activity in BALB/c mouse T cell assessed as assessed as IL-4 level at 1 uM after 48 hrs by ELISA (reference value: 167.8 +/- 9.4 pg/ml); format: functional, T cell line
[12] = Anti-inflammatory activity in BALB/c mouse T cell assessed as assessed as TNF-alpha level at 0.01 uM after 48 hrs by ELISA (reference value: 375.8 +/- 19.6 pg/ml); format: functional, T cell line
[13] = Anti-inflammatory activity in BALB/c mouse T cell assessed as assessed as TNF-alpha level at 0.1 uM after 48 hrs by ELISA (reference value: 375.8 +/- 19.6 pg/ml); format: functional, T cell line
[14] = Anti-inflammatory activity in BALB/c mouse T cell assessed as assessed as TNF-alpha level at 1 uM after 48 hrs by ELISA (reference value: 375.8 +/- 19.6 pg/ml); format: functional, T cell line
[15] = Anti-inflammatory activity in BALB/c mouse T cell assessed as assessed as IL-2 level at 0.01 uM after 48 hrs by ELISA (reference value: 152.9 +/- 8.7 pg/ml); format: functional, T cell line
[16] = Anti-inflammatory activity in BALB/c mouse T cell assessed as assessed as IL-2 level at 0.1 uM after 48 hrs by ELISA (reference value: 152.9 +/- 8.7 pg/ml); format: functional, T cell line
[17] = Anti-inflammatory activity in BALB/c mouse T cell assessed as assessed as IL-2 level at 1 uM after 48 hrs by ELISA (reference value: 152.9 +/- 8.7 pg/ml); format: functional, T cell line
[18] = target: Proto-oncogene tyrosine-protein kinase LCK (Mus musculus) (UniProt P06240); experiment: Inhibition of LCK phosphorylation in Con-A induced BALB/c mouse T cell by Western blot analysis; format: tissue-based; details: T cell line
Proto-oncogene tyrosine-protein kinase LCK (Mus musculus), sequence (P06240 2-509 limits assumed): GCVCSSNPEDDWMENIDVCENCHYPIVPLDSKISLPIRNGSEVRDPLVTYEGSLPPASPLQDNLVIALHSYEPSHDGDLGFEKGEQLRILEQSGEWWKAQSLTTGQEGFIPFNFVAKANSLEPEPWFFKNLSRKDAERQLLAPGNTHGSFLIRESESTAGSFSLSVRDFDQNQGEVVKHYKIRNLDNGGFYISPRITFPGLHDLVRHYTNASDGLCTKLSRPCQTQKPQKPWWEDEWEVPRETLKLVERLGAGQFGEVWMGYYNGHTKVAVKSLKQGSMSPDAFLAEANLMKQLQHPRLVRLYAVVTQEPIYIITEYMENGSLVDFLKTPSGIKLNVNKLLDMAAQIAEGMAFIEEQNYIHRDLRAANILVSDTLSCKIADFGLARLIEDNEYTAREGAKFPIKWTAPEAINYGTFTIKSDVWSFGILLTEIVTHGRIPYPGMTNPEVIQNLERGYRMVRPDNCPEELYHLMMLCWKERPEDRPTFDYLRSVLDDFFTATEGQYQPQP

[19] = target: T1, Tyrosine-protein kinase ZAP-70 (Mus musculus) (UniProt P43404); experiment: Inhibition of ZAP70 phosphorylation in Con-A induced BALB/c mouse T cell by Western blot analysis; format: tissue-based; details: T cell line
T1 sequence (whole entry): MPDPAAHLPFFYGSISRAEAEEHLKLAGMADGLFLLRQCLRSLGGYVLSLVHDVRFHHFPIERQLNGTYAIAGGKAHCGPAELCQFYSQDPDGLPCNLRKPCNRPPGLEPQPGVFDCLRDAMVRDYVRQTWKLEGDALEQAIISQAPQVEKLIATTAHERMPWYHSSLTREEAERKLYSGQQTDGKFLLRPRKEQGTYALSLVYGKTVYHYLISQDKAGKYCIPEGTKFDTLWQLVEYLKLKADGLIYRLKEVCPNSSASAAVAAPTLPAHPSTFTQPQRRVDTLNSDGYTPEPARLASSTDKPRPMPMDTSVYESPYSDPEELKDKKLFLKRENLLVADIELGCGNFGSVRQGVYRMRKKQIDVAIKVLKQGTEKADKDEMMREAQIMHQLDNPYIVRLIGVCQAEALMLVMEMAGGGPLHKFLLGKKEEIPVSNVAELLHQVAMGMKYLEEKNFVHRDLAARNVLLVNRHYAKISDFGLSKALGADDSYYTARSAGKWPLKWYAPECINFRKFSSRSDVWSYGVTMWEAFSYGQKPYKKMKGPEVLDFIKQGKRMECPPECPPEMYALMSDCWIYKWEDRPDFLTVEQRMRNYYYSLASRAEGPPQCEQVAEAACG

[20] = Induction of apoptosis in Con A-induced BALB/c mouse T cell assessed as early apoptotic cells at 0.01 uM after 48 hrs by Annexin V-FITC/propidium iodide staining based FACS assay (reference value: 26.5%); format: functional, T cell line
[21] = Induction of apoptosis in Con A-induced BALB/c mouse T cell assessed as late apoptotic cells at 0.01 uM after 48 hrs by Annexin V-FITC/propidium iodide staining based FACS assay (reference value: 7.3%); format: functional, T cell line
[22] = Induction of apoptosis in Con A-induced BALB/c mouse T cell assessed as necrotic cells at 0.01 uM after 48 hrs by Annexin V-FITC/propidium iodide staining based FACS assay (reference value: 2.9%); format: functional, T cell line
[23] = Induction of apoptosis in Con A-induced BALB/c mouse T cell assessed as viable cells at 0.01 uM after 48 hrs by Annexin V-FITC/propidium iodide staining based FACS assay (reference value: 63.3%); format: functional, T cell line
[24] = Induction of apoptosis in Con A-induced BALB/c mouse T cell assessed as late apoptotic cells at 0.1 uM after 48 hrs by Annexin V-FITC/propidium iodide staining based FACS assay (reference value: 7.3%); format: functional, T cell line
[25] = Induction of apoptosis in Con A-induced BALB/c mouse T cell assessed as necrotic cells at 0.1 uM after 48 hrs by Annexin V-FITC/propidium iodide staining based FACS assay (reference value: 2.9%); format: functional, T cell line
[26] = Induction of apoptosis in Con A-induced BALB/c mouse T cell assessed as viable cells at 0.1 uM after 48 hrs by Annexin V-FITC/propidium iodide staining based FACS assay (reference value: 63.3%); format: functional, T cell line
[27] = Induction of apoptosis in Con A-induced BALB/c mouse T cell assessed as early apoptotic cells at 0.1 uM after 48 hrs by Annexin V-FITC/propidium iodide staining based FACS assay (reference value: 26.5%); format: functional, T cell line
[28] = Induction of apoptosis in Con A-induced BALB/c mouse T cell assessed as early apoptotic cells at 1 uM after 48 hrs by Annexin V-FITC/propidium iodide staining based FACS assay (reference value: 26.5%); format: functional, T cell line
[29] = Induction of apoptosis in Con A-induced BALB/c mouse T cell assessed as late apoptotic cells at 1 uM after 48 hrs by Annexin V-FITC/propidium iodide staining based FACS assay (reference value: 7.3%); format: functional, T cell line
[30] = Induction of apoptosis in Con A-induced BALB/c mouse T cell assessed as necrotic cells at 1 uM after 48 hrs by Annexin V-FITC/propidium iodide staining based FACS assay (reference value: 2.9%); format: functional, T cell line
[31] = Induction of apoptosis in Con A-induced BALB/c mouse T cell assessed as viable cells at 1 uM after 48 hrs by Annexin V-FITC/propidium iodide staining based FACS assay (reference value: 63.3%); format: functional, T cell line

CNC(=O)[C@]1(C)CC[C@]2(C)CC[C@]3(C)C4=CC=C5C(=CC(=O)C(O)=C5C)[C@]4(C)CC[C@@]3(C)[C@@H]2C1
CC50 at 48 h [1]: 1200 nM
pIC50 [2]: 7.60
Ratio CC50/IC50 [3]: 47.7
Activity [4]: Active
Activity [5]: Active
Activity [6]: Active
Activity [7]: Active
Activity [8]: Active
Activity [9]: 135.2 pg/mL
Activity [10]: 78.2 pg/mL
Activity [11]: 39.1 pg/mL
Activity [12]: 264.5 pg/mL
Activity [13]: 204.1 pg/mL
Activity [14]: 142.9 pg/mL
Activity [15]: 128.7 pg/mL
Activity [16]: 79.1 pg/mL
Activity [17]: 51.1 pg/mL
inhibition [18]: Dose-dependent effect
inhibition [19]: Dose-dependent effect
Activity [20]: 27.9%
Activity [21]: 7%
Activity [22]: 1.7%
Activity [23]: 63.4%
Activity [24]: 9.5%
Activity [25]: 0.5%
Activity [26]: 46.3%
Activity [27]: 43.6%
Activity [28]: 56%
Activity [29]: 8.5%
Activity [30]: 1%
Activity [31]: 34.5%
